Results reported in patent publication US20240246960A1 (adMare Therapeutics Society, priority 2021, published 2024).

Assays:
[1] = target: T1, DNA-PK (Homo sapiens, UniProt P78527); assay: DNA-PK Assay for Biochemical Enzymatic Inhibition (ADP Glo Kinase assay); conditions: Table 1
T1 construct: purchased Invitrogen PR9107A
Summary of the method: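 Human DNA-PK (25 ng) preincubated 15 min with compounds (ten three-fold dilutions) in HEPES pH 7.5, MgCl2, KCl, calf thymus DNA buffer, then substrate 434.4 μM and ATP 64.4 μM (final) for 60 min at room temperature. ADP-Glo luminescence; percent inhibition fitted by four-parameter regression for IC50.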

[2] = Hepatocyte stability assay, mouse hepatocytes; format: in vitro ADME; conditions: for hepatocyte CLint at 1 uM: male, CD-1, mouse, cryopreserved hepatocytes, pH 7.3, 0.7 million cells per mL, 1 uM compound
Procedure: (§1) Cryopreserved mouse hepatocytes were obtained from a pool of 10 or more male CD-1 mice. Cryopreserved human hepatocytes were obtained from a pool of 10 or more donors of mixed gender. Final hepatocyte density was 0.7 million viable cells per mL and test compound concentration was 1 uM with a maximum of 0.01% DMSO. Cryopreserved hepatocytes were thawed, washed, and resuspended in Krebs-Heinslet buffer (pH 7.3). The reaction was initiated by adding the test compound into cell suspension and incubated for 0, […], 1, 1.5, and 2 h, respectively, at 37° C./5% CO2. The reaction was stopped by adding acetonitrile into the incubation mixture. Samples were then mixed, transferred completely to another 96-well plate, and centrifuged. Supernatants were used for HPLC-MS/MS analysis. […] Peak areas corresponding to the test compound were recorded.

[3] = Hepatocyte stability assay, human hepatocytes; format: in vitro ADME; conditions: for hepatocyte CLint at 1 uM: both sexes, human, cryopreserved hepatocytes, pH 7.3, 0.7 million cells per mL, 1 uM compound
Procedure: as §1

c1cnc2cc(N3CCOCC3)nc(O[C@H]3CC[C@@H](Nc4ncnc5ccsc45)CC3)c2c1 [Compound 83, N-((1s,4s)-4-((7-morpholino-1,6-naphthyridin-5-yl)oxy)cyclohexyl)thieno[3,2-d]pyrimidin-4-amine]
IC50 [1]: < 0.5 nM | Hepatocyte Stability (mouse) % rem. 120 min [2]: F (% remaining = 25-50%) | hepatocyte CLint at 1 uM [2]: > 8.2 µL/min/1e6 cells | Hepatocyte Stability (human) % rem. 120 min [3]: E (% remaining = 0-25%) | hepatocyte CLint at 1 uM [3]: > 8.2 µL/min/1e6 cells

c1cnc2cc(N3CCOCC3)nc(O[C@H]3CC[C@@H](Nc4ncc5sccc5n4)CC3)c2c1 [Compound 84, N-((1s,4s)-4-((7-Morpholino-1,6-naphthyridin-5-yl)oxy)cyclohexyl)thieno[3,2-d]pyrimidin-2-amine]
IC50 [1]: < 0.5 nM | Hepatocyte Stability (mouse) % rem. 120 min [2]: F (% remaining = 25-50%) | hepatocyte CLint at 1 uM [2]: > 8.2 µL/min/1e6 cells | Hepatocyte Stability (human) % rem. 120 min [3]: F (% remaining = 25-50%) | hepatocyte CLint at 1 uM [3]: > 8.2 µL/min/1e6 cells

c1cnc2cc(N3CCOCC3)nc(O[C@H]3CC[C@@H](Nc4ncc5[nH]ccc5n4)CC3)c2c1 [Compound 85, N-((1s,4s)-4-((7-Morpholino-1,6-naphthyridin-5-yl)oxy)cyclohexyl)-5H-pyrrolo[3,2-d]pyrimidin-2-amine]
IC50 [1]: < 0.5 nM | Hepatocyte Stability (mouse) % rem. 120 min [2]: E (% remaining = 0-25%) | hepatocyte CLint at 1 uM [2]: > 8.2 µL/min/1e6 cells | Hepatocyte Stability (human) % rem. 120 min [3]: E (% remaining = 0-25%) | hepatocyte CLint at 1 uM [3]: > 8.2 µL/min/1e6 cells

Cn1ccc2nc(N[C@H]3CC[C@@H](Oc4nc(N5CCOCC5)cc5ncccc45)CC3)ncc21 [Compound 87, 5-Methyl-N-((1s,4s)-4-((7-morpholino-1,6-naphthyridin-5-yl)oxy)cyclohexyl)-5H-pyrrolo[3,2-d]pyrimidin-2-amine]
IC50 [1]: < 0.5 nM | Hepatocyte Stability (mouse) % rem. 120 min [2]: F (% remaining = 25-50%) | hepatocyte CLint at 1 uM [2]: > 8.2 µL/min/1e6 cells | Hepatocyte Stability (human) % rem. 120 min [3]: G (% remaining = 50-75%) | hepatocyte CLint at 1 uM [3]: < 8.2 µL/min/1e6 cells

Cn1cnc2cnc(N[C@H]3CC[C@@H](Oc4nc(N5CCOCC5)cc5ncccc45)CC3)nc21 [Compound 88, 9-Methyl-N-((1s,4s)-4-((7-morpholino-1,6-naphthyridin-5-yl)oxy)cyclohexyl)-9H-purin-2-amine]
IC50 [1]: 0.5 to 1 nM | Hepatocyte Stability (mouse) % rem. 120 min [2]: E (% remaining = 0-25%) | hepatocyte CLint at 1 uM [2]: > 8.2 µL/min/1e6 cells | Hepatocyte Stability (human) % rem. 120 min [3]: E (% remaining = 0-25%) | hepatocyte CLint at 1 uM [3]: > 8.2 µL/min/1e6 cells

c1cnc2cc(N3CCOCC3)nc(O[C@H]3CC[C@@H](Nc4ccn5nccc5n4)CC3)c2c1 [Compound 89, N-((1s,4s)-4-((7-Morpholino-1,6-naphthyridin-5-yl)oxy)cyclohexyl)pyrazolo[1,5-a]pyrimidin-5-amine]
IC50 [1]: 0.5 to 1 nM | Hepatocyte Stability (mouse) % rem. 120 min [2]: F (% remaining = 25-50%) | hepatocyte CLint at 1 uM [2]: > 8.2 µL/min/1e6 cells | Hepatocyte Stability (human) % rem. 120 min [3]: G (% remaining = 50-75%) | hepatocyte CLint at 1 uM [3]: < 8.2 µL/min/1e6 cells

COc1cnc(N[C@H]2CC[C@@H](Oc3nc(N4CCOCC4)cc4ncc(NS(C)(=O)=O)cc34)CC2)nc1 [Compound 203, N-(5-(((1s,4s)-4-((5-methoxypyrimidin-2-yl)amino)cyclohexyl)oxy)-7-morpholino-1,6-naphthyridin-3-yl)methanesulfonamide]
IC50 [1]: < 0.5 nM | Hepatocyte Stability (mouse) % rem. 120 min [2]: F (% remaining = 25-50%) | hepatocyte CLint at 1 uM [2]: < 8.2 µL/min/1e6 cells | Hepatocyte Stability (human) % rem. 120 min [3]: G (% remaining = 50-75%) | hepatocyte CLint at 1 uM [3]: < 8.2 µL/min/1e6 cells

CS(=O)(=O)Nc1cnc2cc(N3CCOCC3)nc(O[C@H]3CC[C@@H](NC(=O)c4ncco4)CC3)c2c1 [Compound 205, N-((1s,4s)-4-((3-(methylsulfonamido)-7-morpholino-1,6-naphthyridin-5-yl)oxy)cyclohexyl)oxazole-2-carboxamide]
IC50 [1]: 0.5 to 1 nM | Hepatocyte Stability (mouse) % rem. 120 min [2]: H (% remaining = 75-100%) | hepatocyte CLint at 1 uM [2]: < 8.2 µL/min/1e6 cells | Hepatocyte Stability (human) % rem. 120 min [3]: H (% remaining = 75-100%) | hepatocyte CLint at 1 uM [3]: < 8.2 µL/min/1e6 cells
